Assay results: patent US5281598A, “Piperazine derivatives” (Akzo N.V., priority 1992, dated 1994)

Assays:
[1] = in words; literature (Tamminga and Gerlach); cited from earlier work
[2] = target: α1 adrenoceptor; assay: α1 adrenoceptor affinity, prazosin (PRA) binding
Protocol: (§1) The activities are expressed as pKi values (-log Ki values; Ki being the binding constant). The sigma receptor binding was assessed by the 1,3-di-o-tolylguanidine (DTG) binding as described by Fox et al., Eur. J. Pharmacol., 193, 139-143, 1991. The α1 adrenoceptor affinity was assessed by the prazosin (PRA) binding as described by de Boer et al., Arzneim. Forsch., 40, 550-554, 1990.

[3] = target: sigma receptor; assay: sigma receptor binding, 1,3-di-o-tolylguanidine (DTG) binding; details: 1,3-di-o-tolylguanidine binding
Protocol: as §1

[4] = tested on: α1 adrenoceptor; assay: α1 adrenoceptor activity of the prior art compounds (statement in background); details: in words
[5] = tested on: sigma receptor; details: in words; disclosed in WO 91/09594; cited from earlier work

| PRA pKi (-log Ki) [2] | DTG pKi (-log Ki) [3] | SMILES | induction of orthostatic hypotension [1] | α1 adrenoceptor activity [4] | sigma receptor affinity [5] |
| --- | --- | --- | --- | --- | --- |
|  |  | CN1CCN(C2=Nc3cc(Cl)ccc3Nc3ccccc32)CC1 [clozapine] | induction of orthostatic hypotension |  |  |
| 5.7 | 8.7 | Cl.Cl.c1ccc(CCCN2CCN(CCOCc3ccccc3)CC2)cc1 [Compound of Example 1, 1-[2-(phenylmethoxy)ethyl]-4-(3-phenylpropyl)piperazine dihydrochloride] |  |  |  |
| 8.7 | 8.2 | c1ccc(CCCN2CCN(c3ccccc3)CC2)cc1 [Compound 46 of WO 91/09594] |  | possess α1 adrenoceptor activity | displaying sigma receptor affinity |

| SMILES | PRA pKi (-log Ki) [2] | DTG pKi (-log Ki) [3] | induction of orthostatic hypotension [1] | α1 adrenoceptor activity [4] | sigma receptor affinity [5] |
| --- | --- | --- | --- | --- | --- |
| c1ccc(CCCCN2CCN(Cc3ccccc3)CC2)cc1 [Compound 79 of WO 91/09594] | 7.4 | 8.6 |  | possess α1 adrenoceptor activity | displaying sigma receptor affinity |
